Literature values, collected in US10011626B2, “Method for the purification of decitabine” (Johnson Matthey Public Limited Company, priority 2012, dated 2018).

solubility in 1,1,1,3,3,3-hexafluoro-2-propanol (solvent: 1,1,1,3,3,3-hexafluoro-2-propanol, slightly soluble): about 18 mg/mL
solubility in methyl sulfoxide (solvent: methyl sulfoxide): approximately 37 mg/mL
solubility in water (solvent: water, sparingly soluble): about 8 mg/mL
SMILES: Nc1ncn([C@H]2CC(O)[C@@H](CO)O2)c(=O)n1 (stereo partly drawn) [decitabine, 4-amino-1-(2-deoxy-β-D-erythropentofuranosyI)-1,3,5-triazin-2-(1H)-one]
